According to BigSolDB 2.1:

O=C(O)C=CC(=O)O.OCCOCCN1CCN(C2=Nc3ccccc3Sc3ccccc32)CC1.OCCOCCN1CCN(C2=Nc3ccccc3Sc3ccccc32)CC1
solubility (mole fraction)
Conditions | in DMF | in acetone | in ethanol | in ethyl acetate | in isobutanol | in isopropanol | in methanol | in n-butanol | in water
283.15 K | 0.00309 | 0.000106 | 0.000191 | 8.13e-05 | 6.85e-05 | 0.000107 | 0.000388 | 0.000154 | 4.98e-05
288.15 K | 0.00369 | 0.000146 | 0.000244 | 9.87e-05 | 8.53e-05 | 0.000126 | 0.000453 | 0.000216 | 5.57e-05
293.15 K | 0.00419 | 0.000178 | 0.000325 | 0.000142 | 0.000119 | 0.000168 | 0.000545 | 0.000292 | 6.73e-05
298.15 K | 0.00491 | 0.000217 | 0.000408 | 0.000176 | 0.000162 | 0.000203 | 0.000696 | 0.000393 | 7.39e-05
303.15 K | 0.00598 | 0.000251 | 0.000502 | 0.000218 | 0.000204 | 0.000251 | 0.000879 | 0.000502 | 7.99e-05
308.15 K | 0.00684 | 0.000294 | 0.000636 | 0.000255 | 0.000251 | 0.000289 | 0.00121 | 0.000619 | 9.31e-05
313.15 K | 0.0084 | 0.000345 | 0.000838 | 0.000306 | 0.000307 | 0.00036 | 0.00163 | 0.000792 | 0.000108
318.15 K | 0.0102 | 0.000395 | 0.0011 | 0.000365 | 0.000395 | 0.000494 | 0.00202 | 0.000988 | 0.000131
323.15 K | 0.0123 | 0.000475 | 0.00135 | 0.000411 | 0.000481 | 0.000716 | 0.00245 | 0.00118 | 0.000162
